# Reference: patent US20240408170A1, “COMPOSITION FOR DECOMPOSITION OF TRYPSIN OR TMPRSS2” (Riken, priority 2021, published 2024)
# Experiments:
# trypsin = molecular target: T1, trypsin (Mus musculus, UniProt P07146); test: Substrate specificity: ex vivo incubation of GF mouse cecal contents with P. clara, peptidome analysis by LC-MS; type: biochemical; conditions: 7614 peptides derived from 276 proteins, cecal contents of GF mice
# T1 construct: the anionic trypsin protease was abundantly present in the cecal contents and the faeces; from tissue; host or cells: faeces and cecal contents of germ-free / gnotobiotic mice
# T1 sequence (P07146 24-246): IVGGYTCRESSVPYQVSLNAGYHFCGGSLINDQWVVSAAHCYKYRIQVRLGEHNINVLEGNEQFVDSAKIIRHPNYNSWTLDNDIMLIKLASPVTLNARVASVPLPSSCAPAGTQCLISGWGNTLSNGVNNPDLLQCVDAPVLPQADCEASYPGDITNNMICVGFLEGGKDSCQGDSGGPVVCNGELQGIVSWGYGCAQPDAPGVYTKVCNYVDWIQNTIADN
# Protocol: An acetonitrile (ACN) containing 0.1% trifluoroacetic acid (TFA) was added to the cecal contents and dried with a centrifugal evaporator. Acetone was added to the dried sample, and a low-molecular-weight compound that was soluble in lipids was extracted with a water bath type sonicator. Thereafter, centrifugation was performed at 15,000×g for 15 minutes at 4° C.
# After removing the supernatant, 70% ACN-HCl was added to the precipitate, and the peptides were redissolved in a water bath type sonicator. Thereafter, centrifugation was performed at 15,000×g for 15 minutes at 4° C. Subsequently, the supernatant was transferred to a new tube and dried with a centrifugal evaporator. Subsequently, the dried sample was redissolved in 100 mM Tris-HCl containing a protease inhibitor, and then treated with 10 mM dithiothreitol at 50° C. for 30 minutes. Thereafter, alkylation was carried out with 30 mM iodoacetamide for 30 minutes at room temperature in a dark place. Thereafter, acidification was carried out with 0.5% trifluoroacetic acid (final concentration). The acidified sample was desalted with MonoSpin C18 (GL Sciences Inc.). […]
# The peptides eluted from the column were analyzed by DDA-MS using Q Exactive HF-X (Thermo Fisher Scientific K.K.). […]
# recombinant mouse PRSS2 [1] = molecular target: T2, recombinant mouse PRSS2 (Mus musculus, UniProt P07146); test: Trypsin decomposition in vitro by bacteria (western blot); type: biochemical
# T2 construct: purchased Sino Biological, Inc. 50383-M08H
# T2 sequence (P07146 24-246): T1 sequence (P07146 24-246)
# Protocol: (§1) Mouse faecal samples were suspended and diluted 50-fold with phosphate buffered saline (PBS) to which a protease inhibitor cocktail (Roche) was added. Subsequently, the suspended sample was centrifuged at 15,000×g for 10 minutes at 4° C., and the supernatant was subjected to western blot. Mouse pancreatic tissue was rapidly frozen in liquid nitrogen. Proteins were extracted by TRIzol Reagent (Thermo Fisher Scientific K.K.), and the final protein concentration was adjusted to 4 μg/μL. For SDS-PAGE and blotting, Novex (registered trademark) NuPAGE (registered trademark) SDS-PAGE Gel system (Thermo Fisher Scientific K.K.) and iBlot™ 2 Dry Blotting System (Thermo Fisher Scientific K.K.) were used according to the manufacturer's instructions.
# (§2) The bacteria cultured overnight were incubated with recombinant mouse trypsin (final concentration: 1 μg/mL) for 1 hour or with human trypsin (final concentration: 20 μg/mL) for 4 hours. Recombinant trypsin isoforms used were as follows: recombinant mouse PRSS2 (50383-M08H, Sino Biological, Inc.), recombinant human PRSS1 (LS-G135640), recombinant human PRSS2 (LS-G20167), and recombinant human PRSS3 (His-tag) (NBP2-52220).
# In some experiments, recombinant mouse PRSS2 was first treated with one of the following trypsin inhibitors for 30 minutes before incubation with a P. clara culture solution. AEBSF (Sigma-Aldrich, final concentration: 2 mM), Leupeptin (Sigma-Aldrich, final concentration: 100 μM), and TLCK (Abcam plc., final concentration: 100 μM).
# In some experiments, P. clara was cultured overnight in the presence of Tunicamycin (Sigma-Aldrich, final concentration: 10 μg/mL), 2-Fluoro-L-fucose (Cayman Chemical Company, final concentration: 250 μM), or the corresponding DMSO control, before incubation with recombinant mouse PRSS2.
# In the experiment of evaluating the effect of Ca^2+, P. clara was cultured in a low Ca^2+ mGAM medium supplemented with or without 1 mM of Ca^2+, before incubation with recombinant mouse PRSS2. In the experiment in which the supernatant of P. clara was used, P. clara cultured overnight was filtered through a sterilization filter unit formed using a PVDF film having a pore size of 0.22 μm.
# recombinant mouse PRSS2 [2] = molecular target: T2, recombinant mouse PRSS2; test: Binding of Alexa Fluor 488-labeled rmPRSS2 to the surface of bacteria (confocal microscope)
# Protocol: Recombinant mouse PRSS2 was labeled with Alexa Fluor™ 488 using an Alexa Fluor™ 488 Antibody Labeling Kit (Δ20181, Thermo Fisher Scientific K.K.), and was pretreated with an AEBSF inhibitor (150 μg/mL rmPRSS2 with 20 mM AEBSF).
# Mouse PRSS2 labeled with Alexa Fluor™ 488 was incubated in an anaerobic chamber for 20 minutes with bacteria cultured at a final concentration of 5 μg/mL. The mixture was centrifuged, washed once with PBS, and then resuspended in PBS. A Leica TCS SP8 confocal microscope was used for capturing a confocal image.
# FITC-casein substrate = test: Protease activity assay (cleavage of FITC-labeled casein); type: biochemical
# Protocol: The protease activity of the P. clara culture solution, the P. clara culture solution supernatant, the recombinant 00502 protein, and the recombinant 005009 protein were measured using Pierce™ Fluorescent Protease Assay Kit (#23266, Thermo Fisher Scientific K.K.) according to the manufacturer's protocol.
# Using PerkinElmer 2030 Multilabel Reader equipped with an excitation filter and a fluorescence filter of fluorescein (485/538 nm), an increase in total fluorescence due to digestion of the FITC-casein substrate to smaller fluorescein-labeled fragments was detected. The protease activity was measured as a change in relative fluorescence units (RFUs).
# recombinant human PRSS1 = molecular target: T3, recombinant human PRSS1 (Homo sapiens, UniProt P07477); test: Human trypsin decomposition in vitro by P. clara (western blot); type: biochemical
# T3 construct: purchased LS-G135640
# Protocol: as §1, §2
# recombinant human PRSS2 = molecular target: T4, recombinant human PRSS2 (Homo sapiens, UniProt P07478); test: as above; type: biochemical
# T4 construct: purchased LS-G20167
# T4 sequence (P07478 24-247): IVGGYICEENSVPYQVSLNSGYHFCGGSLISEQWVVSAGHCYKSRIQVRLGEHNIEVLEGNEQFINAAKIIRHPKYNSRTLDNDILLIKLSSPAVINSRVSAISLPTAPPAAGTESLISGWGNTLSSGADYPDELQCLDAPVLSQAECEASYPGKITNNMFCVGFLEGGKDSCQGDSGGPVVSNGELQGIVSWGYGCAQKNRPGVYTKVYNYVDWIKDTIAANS
# Protocol: as §1, §2
substance,measurement,setting,value
Paraprevotella clara [P. clara (strain ID: 1C4)],substrate specificity: proteins with increase in peptide concentration over time,trypsin,trypsin was only one protein that exhibited a pattern of a clear increase in peptide concentration over time
same,reaction rate of trypsin decomposition by P. clara,recombinant mouse PRSS2 [1],gradually occurs stoichiometrically
same,dependence of P. clara-mediated trypsin decomposition on divalent cations,recombinant mouse PRSS2 [1]; Ca2+,occurred only in the presence of a sufficient amount of divalent cations
same,decomposition of rmPRSS2 (western blot),recombinant mouse PRSS2 [1]; bacteria or culture supernatant incubated with recombinant mouse trypsin,reduced trypsin
same,binding of rmPRSS2 to the surface of bacteria,recombinant mouse PRSS2 [2],accumulate on the surface
same,protease activity (change in relative fluorescence units),FITC-casein substrate,no proteolytic activity was detected
same,decomposition of human trypsin PRSS1 (western blot),recombinant human PRSS1,can promote the reduction
same,decomposition of human trypsin PRSS2 (western blot),recombinant human PRSS2,can promote the reduction
